Measurements published in ChEMBL document CHEMBL5532655, “Discovery of (R)-4-(8-methoxy-2-methyl-1-(1-phenylethy)-1H-imidazo[4,5-c]quinnolin-7-yl)-3,5-dimethylisoxazole as a potent and selective BET inhibitor for treatment of acute myeloid leukemia (AML) guided by FEP calculation” (Eur J Med Chem, 2024).

How the values were obtained:
[1] = target: T1, Bromodomain-containing protein 9 (Homo sapiens) (UniProt Q9H8M2); assay: Binding affinity to BRD9 (unknown origin) using biotinylated histone peptide H4 as substrate at 1 uM incubated for 2 hrs by AlphaScreen assay relative to control
T1 sequence (whole entry): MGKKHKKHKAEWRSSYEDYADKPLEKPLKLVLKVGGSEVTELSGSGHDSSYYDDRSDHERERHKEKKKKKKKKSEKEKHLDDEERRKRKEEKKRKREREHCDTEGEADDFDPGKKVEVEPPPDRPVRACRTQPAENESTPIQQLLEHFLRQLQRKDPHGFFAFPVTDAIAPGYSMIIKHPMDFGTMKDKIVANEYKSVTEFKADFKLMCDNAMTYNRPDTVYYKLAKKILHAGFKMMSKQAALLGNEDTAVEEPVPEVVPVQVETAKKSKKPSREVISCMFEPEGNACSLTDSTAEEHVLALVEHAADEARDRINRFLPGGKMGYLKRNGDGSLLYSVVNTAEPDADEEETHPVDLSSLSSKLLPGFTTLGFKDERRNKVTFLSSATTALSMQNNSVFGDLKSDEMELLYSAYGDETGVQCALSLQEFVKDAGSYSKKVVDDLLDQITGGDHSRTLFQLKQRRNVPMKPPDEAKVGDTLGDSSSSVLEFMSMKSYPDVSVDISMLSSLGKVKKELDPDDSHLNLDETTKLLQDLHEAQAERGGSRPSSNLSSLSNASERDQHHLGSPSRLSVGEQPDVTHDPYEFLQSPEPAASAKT

[2] = target: T2, Transcription intermediary factor 1-alpha (Homo sapiens) (UniProt O15164); assay: Binding affinity to TRIM24 (unknown origin) using biotinylated histone peptide H4 as substrate at 1 uM incubated for 2 hrs by AlphaScreen assay relative to control
T2 sequence (whole entry): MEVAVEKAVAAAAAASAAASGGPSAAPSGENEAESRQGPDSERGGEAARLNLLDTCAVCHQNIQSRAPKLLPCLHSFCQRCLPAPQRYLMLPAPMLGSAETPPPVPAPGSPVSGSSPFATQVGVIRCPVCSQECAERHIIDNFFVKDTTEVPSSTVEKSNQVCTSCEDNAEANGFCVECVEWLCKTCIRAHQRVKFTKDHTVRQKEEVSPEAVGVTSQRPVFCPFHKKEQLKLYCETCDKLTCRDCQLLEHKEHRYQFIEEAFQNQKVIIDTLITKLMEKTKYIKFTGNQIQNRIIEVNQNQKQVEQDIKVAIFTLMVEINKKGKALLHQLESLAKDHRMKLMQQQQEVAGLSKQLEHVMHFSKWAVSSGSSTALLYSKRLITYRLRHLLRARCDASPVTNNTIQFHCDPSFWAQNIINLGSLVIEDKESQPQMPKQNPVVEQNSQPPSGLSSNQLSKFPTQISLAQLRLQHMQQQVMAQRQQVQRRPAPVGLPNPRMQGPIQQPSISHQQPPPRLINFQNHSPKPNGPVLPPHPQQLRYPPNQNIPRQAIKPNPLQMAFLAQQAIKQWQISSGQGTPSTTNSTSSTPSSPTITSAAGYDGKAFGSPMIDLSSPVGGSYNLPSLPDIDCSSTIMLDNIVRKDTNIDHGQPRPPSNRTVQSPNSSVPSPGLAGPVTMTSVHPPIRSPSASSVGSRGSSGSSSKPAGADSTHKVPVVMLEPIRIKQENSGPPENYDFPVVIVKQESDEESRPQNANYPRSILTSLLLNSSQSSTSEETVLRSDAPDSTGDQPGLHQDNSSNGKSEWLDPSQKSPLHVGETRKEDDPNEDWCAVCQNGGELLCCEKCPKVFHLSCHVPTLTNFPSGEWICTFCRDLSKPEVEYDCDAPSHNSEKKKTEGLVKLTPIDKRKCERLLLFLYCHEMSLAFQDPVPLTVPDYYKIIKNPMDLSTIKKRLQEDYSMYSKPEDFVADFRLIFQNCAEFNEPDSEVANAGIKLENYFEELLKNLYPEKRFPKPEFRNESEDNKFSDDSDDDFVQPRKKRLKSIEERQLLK

[3] = target: Bromodomain adjacent to zinc finger domain protein 2B (Homo sapiens) (UniProt Q9UIF8); assay: Binding affinity to BAZ2B (unknown origin) using biotinylated histone peptide H4 as substrate at 1 uM incubated for 2 hrs by AlphaScreen assay relative to control
[4] = target: Chromatin remodeling regulator CECR2 (Homo sapiens) (UniProt Q9BXF3); settings: time 30.0 min
Chromatin remodeling regulator CECR2 (Homo sapiens), sequence (Q9BXF3 whole entry, looked up): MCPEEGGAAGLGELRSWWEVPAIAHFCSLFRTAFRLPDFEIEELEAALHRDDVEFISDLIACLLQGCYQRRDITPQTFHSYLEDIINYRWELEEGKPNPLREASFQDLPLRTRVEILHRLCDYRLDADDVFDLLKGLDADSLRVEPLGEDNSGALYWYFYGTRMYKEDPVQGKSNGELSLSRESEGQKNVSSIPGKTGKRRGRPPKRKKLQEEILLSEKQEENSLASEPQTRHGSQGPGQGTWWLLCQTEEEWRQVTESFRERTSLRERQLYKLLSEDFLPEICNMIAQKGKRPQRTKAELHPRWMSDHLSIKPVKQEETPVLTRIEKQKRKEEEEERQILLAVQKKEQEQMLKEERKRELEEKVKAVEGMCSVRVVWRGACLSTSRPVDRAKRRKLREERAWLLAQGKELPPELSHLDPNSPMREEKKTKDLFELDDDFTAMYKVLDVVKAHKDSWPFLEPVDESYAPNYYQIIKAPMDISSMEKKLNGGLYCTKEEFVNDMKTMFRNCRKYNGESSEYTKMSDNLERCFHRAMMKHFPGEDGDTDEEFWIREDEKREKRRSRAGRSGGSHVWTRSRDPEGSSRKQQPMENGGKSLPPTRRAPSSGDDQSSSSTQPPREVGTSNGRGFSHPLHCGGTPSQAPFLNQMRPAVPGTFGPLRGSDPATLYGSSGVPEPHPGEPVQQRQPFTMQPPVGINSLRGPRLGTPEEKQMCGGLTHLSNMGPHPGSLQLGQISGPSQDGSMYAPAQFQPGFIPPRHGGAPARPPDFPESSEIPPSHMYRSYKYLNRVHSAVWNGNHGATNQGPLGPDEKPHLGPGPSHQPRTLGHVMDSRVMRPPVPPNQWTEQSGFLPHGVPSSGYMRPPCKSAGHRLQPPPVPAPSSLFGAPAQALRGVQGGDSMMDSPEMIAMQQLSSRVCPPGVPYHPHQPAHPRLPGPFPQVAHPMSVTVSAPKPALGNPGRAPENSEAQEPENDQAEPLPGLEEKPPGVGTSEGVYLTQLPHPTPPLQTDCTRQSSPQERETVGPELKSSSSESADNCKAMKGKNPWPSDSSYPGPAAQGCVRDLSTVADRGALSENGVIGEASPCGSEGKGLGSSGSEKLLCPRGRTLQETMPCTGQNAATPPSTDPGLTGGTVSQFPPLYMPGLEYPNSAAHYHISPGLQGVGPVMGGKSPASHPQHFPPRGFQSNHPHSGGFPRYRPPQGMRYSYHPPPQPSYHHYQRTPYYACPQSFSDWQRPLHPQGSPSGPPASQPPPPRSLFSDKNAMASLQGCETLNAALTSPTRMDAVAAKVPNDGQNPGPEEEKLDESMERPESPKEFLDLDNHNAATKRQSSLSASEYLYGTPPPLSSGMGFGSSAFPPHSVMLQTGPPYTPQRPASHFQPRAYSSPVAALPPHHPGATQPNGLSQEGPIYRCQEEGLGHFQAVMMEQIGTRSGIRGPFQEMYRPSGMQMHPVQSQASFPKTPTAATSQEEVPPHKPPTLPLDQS

[5] = target: Histone acetyltransferase KAT2A (Homo sapiens) (UniProt Q92830); settings: time 30.0 min
[6] = target: T1, Bromodomain-containing protein 9 (Homo sapiens); settings: time 30.0 min
[7] = target: Transcription initiation factor TFIID subunit 1 (Homo sapiens) (UniProt P21675); settings: time 30.0 min
Transcription initiation factor TFIID subunit 1 (Homo sapiens), sequence (P21675 whole entry): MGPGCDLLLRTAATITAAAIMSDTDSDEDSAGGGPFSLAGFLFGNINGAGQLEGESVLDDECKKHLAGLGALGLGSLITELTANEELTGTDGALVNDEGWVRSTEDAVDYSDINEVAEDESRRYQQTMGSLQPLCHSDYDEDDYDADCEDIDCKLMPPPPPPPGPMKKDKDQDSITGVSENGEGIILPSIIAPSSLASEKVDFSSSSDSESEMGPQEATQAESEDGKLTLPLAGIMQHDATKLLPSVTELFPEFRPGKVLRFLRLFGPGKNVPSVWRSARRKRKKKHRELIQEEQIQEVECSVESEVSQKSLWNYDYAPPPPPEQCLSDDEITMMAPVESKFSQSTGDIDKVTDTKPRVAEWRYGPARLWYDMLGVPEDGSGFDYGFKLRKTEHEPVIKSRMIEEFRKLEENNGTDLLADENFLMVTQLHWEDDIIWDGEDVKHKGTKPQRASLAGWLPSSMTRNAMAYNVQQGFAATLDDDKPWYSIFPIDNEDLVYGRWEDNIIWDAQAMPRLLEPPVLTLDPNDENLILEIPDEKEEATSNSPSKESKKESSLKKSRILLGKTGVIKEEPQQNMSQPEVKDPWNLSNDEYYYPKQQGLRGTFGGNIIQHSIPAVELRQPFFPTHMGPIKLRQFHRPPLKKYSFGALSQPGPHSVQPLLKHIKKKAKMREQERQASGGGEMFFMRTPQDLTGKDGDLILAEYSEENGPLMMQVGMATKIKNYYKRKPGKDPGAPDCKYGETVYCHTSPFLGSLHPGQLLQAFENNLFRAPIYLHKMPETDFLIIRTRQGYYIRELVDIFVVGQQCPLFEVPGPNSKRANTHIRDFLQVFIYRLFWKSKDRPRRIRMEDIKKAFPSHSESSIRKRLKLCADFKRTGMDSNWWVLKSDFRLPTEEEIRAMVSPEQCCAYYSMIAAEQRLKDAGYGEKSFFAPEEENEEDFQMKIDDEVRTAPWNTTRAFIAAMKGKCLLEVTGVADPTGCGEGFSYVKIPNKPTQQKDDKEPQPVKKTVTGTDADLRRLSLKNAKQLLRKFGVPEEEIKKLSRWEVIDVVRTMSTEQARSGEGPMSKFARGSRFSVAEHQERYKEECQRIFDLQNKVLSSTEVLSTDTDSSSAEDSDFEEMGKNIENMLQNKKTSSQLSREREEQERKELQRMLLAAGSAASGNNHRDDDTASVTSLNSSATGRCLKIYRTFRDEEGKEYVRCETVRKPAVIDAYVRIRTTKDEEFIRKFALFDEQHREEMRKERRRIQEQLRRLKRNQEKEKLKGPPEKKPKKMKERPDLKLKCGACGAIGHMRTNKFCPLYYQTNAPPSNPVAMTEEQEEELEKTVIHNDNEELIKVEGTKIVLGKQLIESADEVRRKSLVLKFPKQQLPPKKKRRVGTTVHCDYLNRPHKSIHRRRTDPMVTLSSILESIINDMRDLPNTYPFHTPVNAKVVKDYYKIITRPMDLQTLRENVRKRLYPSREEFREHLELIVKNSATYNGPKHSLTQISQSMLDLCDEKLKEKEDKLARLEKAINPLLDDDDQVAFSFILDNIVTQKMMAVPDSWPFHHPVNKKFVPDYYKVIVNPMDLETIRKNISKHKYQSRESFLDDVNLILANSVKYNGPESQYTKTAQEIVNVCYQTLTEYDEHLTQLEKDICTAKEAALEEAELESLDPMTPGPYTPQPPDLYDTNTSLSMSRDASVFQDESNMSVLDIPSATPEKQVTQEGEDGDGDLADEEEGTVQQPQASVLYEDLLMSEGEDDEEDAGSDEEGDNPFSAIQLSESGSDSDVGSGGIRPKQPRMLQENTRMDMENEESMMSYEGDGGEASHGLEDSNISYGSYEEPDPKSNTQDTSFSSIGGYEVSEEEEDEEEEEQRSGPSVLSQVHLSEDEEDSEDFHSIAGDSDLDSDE

[8] = target: Transcription initiation factor TFIID subunit 1 (Homo sapiens) (UniProt P21675); settings: time 30.0 min; remark: listed apart in the source
Homo sapiens [9] = species on record: Homo sapiens; settings: time 30.0 min
Homo sapiens [10] = species on record: Homo sapiens; settings: time 30.0 min; remark: listed apart in the source
[11] = target: SWI/SNF-related matrix-associated actin-dependent regulator of chromatin subfamily A member 4 (Homo sapiens) (UniProt P51532); settings: time 30.0 min
SWI/SNF-related matrix-associated actin-dependent regulator of chromatin subfamily A member 4 (Homo sapiens), sequence (P51532 whole entry): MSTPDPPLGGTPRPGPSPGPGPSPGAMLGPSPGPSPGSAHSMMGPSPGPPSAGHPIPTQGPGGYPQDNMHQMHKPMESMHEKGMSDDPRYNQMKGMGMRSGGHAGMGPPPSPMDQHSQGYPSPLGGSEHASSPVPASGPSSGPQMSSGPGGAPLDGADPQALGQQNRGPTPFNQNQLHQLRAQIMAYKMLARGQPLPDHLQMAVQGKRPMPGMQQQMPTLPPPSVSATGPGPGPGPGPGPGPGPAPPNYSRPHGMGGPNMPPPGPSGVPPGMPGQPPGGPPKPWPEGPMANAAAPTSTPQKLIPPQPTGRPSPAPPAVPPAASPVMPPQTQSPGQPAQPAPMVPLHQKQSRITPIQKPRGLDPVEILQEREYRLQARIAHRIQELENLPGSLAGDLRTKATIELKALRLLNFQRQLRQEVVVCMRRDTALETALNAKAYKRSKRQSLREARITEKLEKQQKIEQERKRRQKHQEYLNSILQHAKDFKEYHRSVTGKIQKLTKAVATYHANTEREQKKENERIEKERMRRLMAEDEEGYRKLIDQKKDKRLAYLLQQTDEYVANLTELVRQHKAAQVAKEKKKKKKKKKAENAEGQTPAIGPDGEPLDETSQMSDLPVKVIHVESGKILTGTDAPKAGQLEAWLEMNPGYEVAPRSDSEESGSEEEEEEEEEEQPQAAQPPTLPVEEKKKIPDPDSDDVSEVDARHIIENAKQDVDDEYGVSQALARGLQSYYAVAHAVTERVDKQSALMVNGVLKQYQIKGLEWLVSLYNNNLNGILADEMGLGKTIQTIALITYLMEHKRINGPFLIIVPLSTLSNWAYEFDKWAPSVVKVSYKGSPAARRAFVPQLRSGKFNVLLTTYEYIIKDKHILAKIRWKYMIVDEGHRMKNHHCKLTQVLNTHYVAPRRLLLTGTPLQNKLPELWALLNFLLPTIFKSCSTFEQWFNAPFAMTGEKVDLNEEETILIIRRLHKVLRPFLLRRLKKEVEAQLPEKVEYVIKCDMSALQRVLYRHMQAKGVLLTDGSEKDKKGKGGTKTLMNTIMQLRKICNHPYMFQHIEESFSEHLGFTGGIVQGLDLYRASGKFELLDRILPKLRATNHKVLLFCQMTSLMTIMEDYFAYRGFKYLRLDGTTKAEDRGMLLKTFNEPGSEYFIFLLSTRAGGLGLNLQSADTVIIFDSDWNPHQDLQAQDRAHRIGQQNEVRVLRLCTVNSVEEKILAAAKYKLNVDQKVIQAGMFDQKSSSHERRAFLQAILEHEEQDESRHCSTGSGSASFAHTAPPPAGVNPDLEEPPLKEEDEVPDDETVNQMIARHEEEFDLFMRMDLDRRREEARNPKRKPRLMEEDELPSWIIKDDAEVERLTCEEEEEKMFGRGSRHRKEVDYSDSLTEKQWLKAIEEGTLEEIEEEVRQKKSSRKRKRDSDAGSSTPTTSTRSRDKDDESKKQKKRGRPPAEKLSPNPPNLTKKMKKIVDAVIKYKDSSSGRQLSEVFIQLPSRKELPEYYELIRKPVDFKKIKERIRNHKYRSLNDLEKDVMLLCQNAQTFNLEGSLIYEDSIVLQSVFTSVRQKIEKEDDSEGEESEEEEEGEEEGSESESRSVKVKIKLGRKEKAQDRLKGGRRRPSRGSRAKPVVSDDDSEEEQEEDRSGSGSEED

MOLM-13 = assay: cells; settings: Homo sapiens, MOLM-13, 48 h
Description: Antiproliferative activity against human MOLM-13 cells assessed as inhibition of cell growth incubated for 48 hrs by MTT assay

Jurkat = assay: cells; settings: Homo sapiens, 48 h
Description: Antiproliferative activity against human Jurkat cells assessed as inhibition of cell growth incubated for 48 hrs by MTT assay

MM1.S = assay: cells; settings: Homo sapiens, 48 h
Description: Antiproliferative activity against human MM1.S cells assessed as inhibition of cell growth incubated for 48 hrs by MTT assay

Activity [1] [%] | Activity [2] [%] | Activity [3] [%] | ΔTm [4] [°C] | ΔTm [5] [°C] | ΔTm [6] [°C] | ΔTm [7] [°C] | ΔTm [8] [°C] | ΔTm (Homo sapiens [9]) [°C] | ΔTm (Homo sapiens [10]) [°C] | ΔTm [11] [°C] | IC50 (MOLM-13) [nM] | IC50 (Jurkat) [nM] | IC50 (MM1.S) [nM] | SMILES
< 30 | < 30 | < 30 | 0 | 0 | 0 | 0 | 0 | 0 | 0 | 0 | 430 | 2080 | 530 | COc1cc2c(cc1-c1c(C)noc1C)ncc1nc(C)n([C@H](C)c3ccccc3)c12
< 30 | < 30 | < 30 | 0 | 0 | 0 | 0 | 0 | 0 | 0 | 0 | 660 | 730 | 480 | COc1cc2c(cc1-c1c(C)n[nH]c1C)ncc1nc(C)n([C@H](C)c3ccccc3)c12
